This series is described as follows: Solubility in water according to the Higuchi-Connor method. The class given is physicochemical. Conditions: thermodynamic from solid; excess amount added to 10 ml of water, shaken on mechanical shaker for 48 hours, filtered, dissolved drug content; read-out: Indomethacin Solubility in water. The method, then:
The solubility of the drug (indomethacin) and solid dispersions of the drug according to the invention was examined in water according to the Higuchi-Connor method, see "Advances in Analytical Chemical Chemistry and Instrumentation" Vol. 4, New York, Wiley-Interscience 1965, page 117-212. An excess amount of drug, comparative solid dispersions and inventive solid dispersions was added to 10 ml of water, separately. The dispersions were shaken on mechanical shaker for 48 hours. Afterwards, the samples were withdrawn, filtered, diluted and analyzed to calculate the dissolved drug content.

In brackets after ≈: the same amount, converted by molar mass.

Consider `COc1ccc2c(c1)c(CC(=O)O)c(C)n2C(=O)c1ccc(Cl)cc1` [Indomethacin], for which the solubility at 48 h worked out at 152 µg/mL (≈ 425 µM).

The term solubility denotes how much of the substance goes into solution per volume.

The values are drawn from EP2649989B1, “Method for preparing a solid dispersion, solid dispersion obtained thereby and use thereof” (King Saud University, priority 2012, dated 2013).
